Measurements published in patent publication US20260138961A1, “MODULATORS OF MITOCHONDRIAL DNA REPLICATION” (Pretzel Therapeutics, Inc., priority 2022, published 2026).

target: T1, POLγA:G848S (Homo sapiens, UniProt P54098, G848S); assay: DNA polymerization assay, POLγA:G848S mutant; format: biochemical; settings: G848S AC50, stimulation of polymerase activity, primed M13mp18 ssDNA, 37° C. 2 hours
T1 sequence (P54098 1-1239 G848S): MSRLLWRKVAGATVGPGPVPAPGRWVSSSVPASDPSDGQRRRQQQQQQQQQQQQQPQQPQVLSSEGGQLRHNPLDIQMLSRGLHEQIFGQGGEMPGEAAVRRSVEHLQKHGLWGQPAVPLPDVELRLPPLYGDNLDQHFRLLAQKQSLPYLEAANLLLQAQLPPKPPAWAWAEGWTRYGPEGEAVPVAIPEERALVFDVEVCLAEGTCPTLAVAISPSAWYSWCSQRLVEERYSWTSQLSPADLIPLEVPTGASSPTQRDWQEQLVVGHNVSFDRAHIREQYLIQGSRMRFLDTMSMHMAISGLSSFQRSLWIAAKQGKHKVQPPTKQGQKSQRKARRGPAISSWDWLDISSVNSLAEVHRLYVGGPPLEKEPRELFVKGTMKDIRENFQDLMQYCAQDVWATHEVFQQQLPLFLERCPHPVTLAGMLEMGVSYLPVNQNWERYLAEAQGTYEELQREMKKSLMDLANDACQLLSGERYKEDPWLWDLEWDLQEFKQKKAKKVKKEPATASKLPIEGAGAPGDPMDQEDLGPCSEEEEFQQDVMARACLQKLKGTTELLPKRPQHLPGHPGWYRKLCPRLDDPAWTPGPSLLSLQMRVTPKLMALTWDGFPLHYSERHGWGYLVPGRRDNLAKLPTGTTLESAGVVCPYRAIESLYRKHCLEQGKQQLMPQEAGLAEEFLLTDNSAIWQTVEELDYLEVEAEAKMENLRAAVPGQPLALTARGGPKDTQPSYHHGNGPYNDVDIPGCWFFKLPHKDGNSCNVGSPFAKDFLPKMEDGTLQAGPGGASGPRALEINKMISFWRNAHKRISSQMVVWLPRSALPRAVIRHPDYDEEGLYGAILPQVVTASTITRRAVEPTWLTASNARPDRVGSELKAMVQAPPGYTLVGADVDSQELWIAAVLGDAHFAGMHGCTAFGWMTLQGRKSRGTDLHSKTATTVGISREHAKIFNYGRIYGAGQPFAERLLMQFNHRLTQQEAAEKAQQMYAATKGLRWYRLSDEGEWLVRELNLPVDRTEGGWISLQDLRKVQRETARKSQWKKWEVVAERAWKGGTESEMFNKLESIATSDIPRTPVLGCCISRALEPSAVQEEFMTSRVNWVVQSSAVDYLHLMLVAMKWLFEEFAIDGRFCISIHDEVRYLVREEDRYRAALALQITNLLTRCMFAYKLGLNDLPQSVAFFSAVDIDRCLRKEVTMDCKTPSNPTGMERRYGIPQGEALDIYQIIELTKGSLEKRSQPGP
T1 sequence (Q9UHN1 1-485 partner): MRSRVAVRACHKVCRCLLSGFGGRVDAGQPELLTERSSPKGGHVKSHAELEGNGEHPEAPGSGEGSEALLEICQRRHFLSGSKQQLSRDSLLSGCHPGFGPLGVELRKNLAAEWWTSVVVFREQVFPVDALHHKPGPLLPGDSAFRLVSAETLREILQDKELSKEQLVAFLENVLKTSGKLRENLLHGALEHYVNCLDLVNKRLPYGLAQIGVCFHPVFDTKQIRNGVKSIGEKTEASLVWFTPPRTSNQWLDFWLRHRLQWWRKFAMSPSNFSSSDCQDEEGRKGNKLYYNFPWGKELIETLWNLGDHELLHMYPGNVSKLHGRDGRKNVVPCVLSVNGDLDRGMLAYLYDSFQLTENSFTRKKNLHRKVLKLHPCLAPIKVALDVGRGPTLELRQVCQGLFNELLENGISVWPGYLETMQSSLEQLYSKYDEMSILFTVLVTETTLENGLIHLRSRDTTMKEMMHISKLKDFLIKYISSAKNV

Question: Which AC50 does the source give for `Cc1cc(S(=O)(=O)Nc2noc(-c3ccccc3)n2)c(C)cc1Cl` [Example 142, 4-chloro-2,5-dimethyl-N-(5-phenyl-1,2,4-oxadiazol-3-yl)benzenesulfonamide] here?
Answer: > 100 µM

same assay, conditions: stimulation of polymerase activity, primed M13mp18 ssDNA, 37° C. 2 hours; read-out: G848S AC50

Question: Which AC50 does the source give for `O=S(=O)(Nc1csc(-c2ccccc2)n1)c1ccc(F)cc1Cl` [Example 126, 2-chloro-4-fluoro-N-(2-phenylthiazol-4-yl)benzenesulfonamide] here?
Answer: > 100 µM

Question: For `O=S(=O)(Nc1csc(-c2ccccc2)n1)c1ccc(C(F)(F)F)cc1` [Example 127, N-(2-phenylthiazol-4-yl)-4-(trifluoromethyl)benzenesulfonamide], which AC50 is on record?
Answer: > 100 µM

Question: For `O=S(=O)(Nc1csc(-c2ccccc2)n1)c1cccc2nccnc12` [Example 128, N-(2-phenylthiazol-4-yl)quinoxaline-5-sulfonamide], which AC50 is on record?
Answer: > 100 µM

Question: With `Cc1cc(S(=O)(=O)N[C@H]2CCCN(C(=O)c3ccccc3)C2)c(C)cc1Cl` [Example 129, (S)-N-(1-benzoylpiperidin-3-yl)-4-chloro-2,5-dimethylbenzenesulfonamide] as the molecule, how does the AC50 read?
Answer: > 100 µM

Question: For `Cc1cc(S(=O)(=O)N[C@H]2CCCN(C(=O)N3CCCC3)C2)c(C)cc1Cl` [Example 130, (S)-4-chloro-2,5-dimethyl-N-(1-(pyrrolidinee-1-carbonyl)piperidin-3-yl)benzenesulfonamide], which AC50 is on record?
Answer: > 100 µM

Question: Which AC50 does the source give for `Cc1cc(S(=O)(=O)Nc2nsc(-c3ccccc3)n2)c(C)cc1Cl` [Example 131, 4-chloro-2,5-dimethyl-N-(5-phenyl-1,2,4-thiadiazol-3-yl)benzenesulfonamide] here?
Answer: 3 µM

Question: With `Cc1cc(S(=O)(=O)Nc2nc(-c3ccccc3)ns2)c(C)cc1Cl` [Example 132, 4-chloro-2,5-dimethyl-N-(3-phenyl-1,2,4-thiadiazol-5-yl)benzenesulfonamide] as the molecule, how does the AC50 read?
Answer: > 100 µM

Question: Which AC50 does the source give for `Cc1cc(S(=O)(=O)Nc2cccc(C(=O)N3CCC[C@@H]3C)c2)c(C)cc1Cl` [Example 133, (S)-4-chloro-2,5-dimethyl-N-(3-(2-methylpyrrolidine-1-carbonyl)phenyl)benzenesulfonamide] here?
Answer: 18 µM

Question: For `Cc1ccc(C)c(S(=O)(=O)Nc2csc(-c3ccccc3)n2)c1` [Example 134, 2,5-dimethyl-N-(2-phenylthiazol-4-yl)benzenesulfonamide], which AC50 is on record?
Answer: 1 µM

Question: For `Cc1cc(Cl)ccc1S(=O)(=O)Nc1csc(-c2ccccc2)n1` [Example 135, 4-chloro-2-methyl-N-(2-phenylthiazol-4-yl)benzenesulfonamide], which AC50 is on record?
Answer: 2 µM

Question: For `Cc1cc(S(=O)(=O)Nc2csc(-c3ccccc3)n2)c(Cl)cc1F` [Example 136, 2-chloro-4-fluoro-5-methyl-N-(2-phenylthiazol-4-yl)benzenesulfonamide], which AC50 is on record?
Answer: 2 µM

Question: For `O=S(=O)(Nc1csc(-c2ccccc2)n1)c1ccc2ncsc2c1` [Example 137, N-(2-phenylthiazol-4-yl)benzo[d]thiazole-6-sulfonamide], which AC50 is on record?
Answer: 11 µM

Question: For `O=S(=O)(Nc1csc(-c2ccccc2)n1)c1ccc(Cl)cc1Cl` [Example 138, 2,4-dichloro-N-(2-phenylthiazol-4-yl)benzenesulfonamide], which AC50 is on record?
Answer: > 100 µM

Question: With `O=S(=O)(Nc1csc(-c2ccccc2)n1)c1ccccn1` [Example 139, N-(2-phenylthiazol-4-yl)pyridine-2-sulfonamide] as the molecule, how does the AC50 read?
Answer: > 100 µM

Question: `O=S(=O)(Nc1csc(-c2ccccc2)n1)c1ccc(F)cc1F` [Example 140, 2,4-difluoro-N-(2-phenylthiazol-4-yl)benzenesulfonamide] was tested. Which AC50 did it give?
Answer: > 100 µM

Question: `O=S(=O)(Nc1csc(-c2ccccc2)n1)c1ccc(C(F)(F)F)cc1F` [Example 141, 2-fluoro-N-(2-phenylthiazol-4-yl)-4-(trifluoromethyl)benzenesulfonamide] was tested. Which AC50 did it give?
Answer: > 100 µM

Question: With `Cc1cc(S(=O)(=O)Nc2nc(-c3ccccc3)no2)c(C)cc1Cl` [Example 143, 4-chloro-2,5-dimethyl-N-(3-phenyl-1,2,4-oxadiazol-5-yl)benzenesulfonamide] as the molecule, how does the AC50 read?
Answer: > 100 µM

Question: With `Cc1cc(S(=O)(=O)Nc2cccc(C(=O)N3CCC[C@H]3CO)c2)c(C)cc1Cl` [Example 145, (S)-4-chloro-N-(3-(2-(hydroxymethyl)pyrrolidine-1-carbonyl)phenyl)-2,5-dimethylbenzenesulfonamide] as the molecule, how does the AC50 read?
Answer: 67 µM

Question: How did the AC50 turn out when `Cc1cc(S(=O)(=O)Nc2csc(-c3ccccc3)n2)c(F)cc1Cl` [Example 146, 4-chloro-2-fluoro-5-methyl-N-(2-phenylthiazol-4-yl)benzenesulfonamide] was run?
Answer: > 100 µM

Question: `O=S(=O)(Nc1csc(-c2ccccc2)n1)c1ccccc1` [Example 147, N-(2-phenylthiazol-4-yl)benzenesulfonamide] was tested. Which AC50 did it give?
Answer: > 100 µM

Question: `Cc1cc(S(=O)(=O)Nc2csc(-c3ccccc3)n2)ccc1Cl` [Example 148, 4-chloro-3-methyl-N-(2-phenylthiazol-4-yl)benzenesulfonamide] was tested. Which AC50 did it give?
Answer: > 100 µM

Question: Which AC50 does the source give for `Cc1cc(S(=O)(=O)N[C@@H]2CCCN(c3ccccc3)C2)c(C)cc1Cl` [Example 149, (R)-4-chloro-2,5-dimethyl-N-(1-phenylpiperidin-3-yl)benzenesulfonamide] here?
Answer: > 100 µM

Question: How did the AC50 turn out when `Cc1cc(S(=O)(=O)N[C@@H]2CCCN(C(=O)c3ccccc3)C2)c(C)cc1Cl` [Example 150, (R)-N-(1-benzoylpiperidin-3-yl)-4-chloro-2,5-dimethylbenzenesulfonamide] was run?
Answer: > 100 µM

Question: How did the AC50 turn out when `O=S(=O)(Nc1csc(-c2ccccc2)n1)c1cccc(C(F)(F)F)c1` [Example 151, N-(2-phenylthiazol-4-yl)-3-(trifluoromethyl)benzenesulfonamide] was run?
Answer: 2 µM

Question: With `O=S(=O)(Nc1csc(-c2ccccc2)n1)c1ccc2c(c1)CCO2` [Example 152, N-(2-phenylthiazol-4-yl)-2,3-dihydrobenzofuran-5-sulfonamide] as the molecule, how does the AC50 read?
Answer: 6 µM

Question: How did the AC50 turn out when `Cc1cc(S(=O)(=O)N[C@@H]2CCCN(C(=O)N3CCCC3)C2)c(C)cc1Cl` [Example 153, (R)-4-chloro-2,5-dimethyl-N-(1-(pyrrolidine-1-carbonyl)piperidin-3-yl)benzenesulfonamide] was run?
Answer: > 100 µM

Question: For `Cc1cc(S(=O)(=O)Nc2ccc3c(c2)CC(=O)N3)c(C)cc1Cl` [Example 185, 4-chloro-2,5-dimethyl-N-(2-oxoindolin-5-yl)benzenesulfonamide], which AC50 is on record?
Answer: 15 µM

Question: With “(R)-2,5-dimethyl-N-(3-(3-methylmorpholine-4-carbonyl)phenyl)benzenesulfonamide [Example 1]” as the molecule, how does the AC50 read?
Answer: 18 µM
